From ChEMBL document CHEMBL5316362, “Synthesis of the Purported Structure of Glyphaeaside C and Proposed Revisions to the Structures of the Glyphaeaside Alkaloids” (J Nat Prod, 2023)
The source made the active and inactive calls. The rule behind the calls is not given here.

Assays:
[1] = Inhibition of Almond beta-glucosidase using p-nitrophenyl glycoside as substrate preincubated for 5 mins followed by substrate addition and measured after 15 mins by spectrometry analysis; design: species or system Prunus dulcis
[2] = test system: Prunus dulcis; assay: Inhibition of almond beta-glucosidase at 1000 uM relative to control
[3] = molecular target: Alpha-galactosidase (Coffea arabica, UniProt Q42656); assay: Inhibition of coffee bean alpha-galactosidase
[4] = test system: Prunus dulcis; assay: Inhibition of Almond beta-glucosidase at 412 uM relative to control
[5] = molecular target: T1, Alpha-mannosidase (Canavalia ensiformis) (UniProt C0HJB3); assay: Inhibition of jack bean alpha-mannosidase at 1000 uM
T1 sequence (whole entry): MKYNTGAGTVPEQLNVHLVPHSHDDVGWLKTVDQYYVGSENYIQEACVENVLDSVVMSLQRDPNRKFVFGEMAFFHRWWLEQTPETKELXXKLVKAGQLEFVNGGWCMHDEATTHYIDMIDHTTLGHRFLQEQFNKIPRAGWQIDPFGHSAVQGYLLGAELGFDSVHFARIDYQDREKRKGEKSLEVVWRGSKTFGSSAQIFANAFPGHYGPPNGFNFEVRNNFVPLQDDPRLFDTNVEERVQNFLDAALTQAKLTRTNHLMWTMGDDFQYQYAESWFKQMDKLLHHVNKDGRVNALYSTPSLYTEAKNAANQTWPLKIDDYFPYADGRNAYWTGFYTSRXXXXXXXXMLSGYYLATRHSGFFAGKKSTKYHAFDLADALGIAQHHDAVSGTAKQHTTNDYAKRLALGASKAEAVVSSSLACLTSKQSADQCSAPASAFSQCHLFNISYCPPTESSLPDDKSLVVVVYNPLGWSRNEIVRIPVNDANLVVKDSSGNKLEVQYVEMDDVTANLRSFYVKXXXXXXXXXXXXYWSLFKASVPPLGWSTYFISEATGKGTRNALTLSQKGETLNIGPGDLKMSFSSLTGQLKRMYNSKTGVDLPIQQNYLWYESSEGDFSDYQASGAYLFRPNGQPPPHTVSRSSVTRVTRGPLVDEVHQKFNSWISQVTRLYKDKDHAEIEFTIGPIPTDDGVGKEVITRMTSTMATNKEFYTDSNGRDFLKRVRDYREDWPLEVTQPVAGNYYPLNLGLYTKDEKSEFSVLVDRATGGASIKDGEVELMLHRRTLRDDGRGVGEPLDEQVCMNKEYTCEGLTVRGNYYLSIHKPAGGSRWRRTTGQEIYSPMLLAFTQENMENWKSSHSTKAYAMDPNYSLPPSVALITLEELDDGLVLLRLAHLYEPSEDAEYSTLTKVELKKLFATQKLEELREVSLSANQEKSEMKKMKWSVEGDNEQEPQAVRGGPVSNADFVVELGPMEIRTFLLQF

[6] = Inhibition of bovine liver beta-galactosidase; assay type: tissue-based, Bos taurus
[7] = organism: Sus scrofa; assay: Inhibition of porcine kidney trehalase at 1000 uM relative to control; assay type: tissue-based
[8] = organism: Bos taurus; assay: Inhibition of bovine liver beta-glucuronidase at 1000 uM; assay type: tissue-based
[9] = (§1) Inhibition of almond beta-glucosidase at 100 uM relative to control; design: species or system Prunus dulcis
[10] = molecular target: Lysosomal alpha-glucosidase (Homo sapiens, UniProt P10253); assay: Inhibition of human lysosomal alpha-glucosidase; assay type: subcellular, Lysosome
[11] = test system: Helix pomatia; assay: Inhibition of snail beta-mannosidase at 1000 uM
[12] = Inhibition of Almond beta-glucosidase; design: species or system Prunus dulcis
[13] = molecular target: Alpha-glucosidase (Saccharomyces cerevisiae S288c, UniProt P53341+P38158+P07265); assay: Inhibition of yeast alpha-glucosidase; assay type: protein assay
[14] = Inhibition of rice alpha glucosidase; design: species or system Oryza sativa
[15] = test system: Aspergillus niger; assay: Inhibition of Aspergillus niger amyloglucosidase at 1000 uM relative to control
[16] = Inhibition of rat intestinal maltase; assay type: tissue-based, Intestine
[17] = Inhibition of human lysosomal alpha-galactosidase; assay type: subcellular, Lysosome
[18] = Inhibition of Bovine liver beta-glucosidase; assay type: tissue-based, Bos taurus
[19] = molecular target: Beta-glucuronidase (Escherichia coli (strain K12)) (UniProt P05804); assay: Inhibition of Escherichia coli beta-glucuronidase at 1000 uM
[20] = test system: Penicillium decumbens; assay: Inhibition of Penicillium decumbens alpha-L-rhamnosidase at 1000 uM relative to control
[21] = molecular target: T2, Tissue alpha-L-fucosidase (Bos taurus) (UniProt Q2KIM0); assay: Inhibition of bovine kidney alpha-L-fucosidase at 1000 uM; assay type: tissue-based
T2 sequence (whole entry): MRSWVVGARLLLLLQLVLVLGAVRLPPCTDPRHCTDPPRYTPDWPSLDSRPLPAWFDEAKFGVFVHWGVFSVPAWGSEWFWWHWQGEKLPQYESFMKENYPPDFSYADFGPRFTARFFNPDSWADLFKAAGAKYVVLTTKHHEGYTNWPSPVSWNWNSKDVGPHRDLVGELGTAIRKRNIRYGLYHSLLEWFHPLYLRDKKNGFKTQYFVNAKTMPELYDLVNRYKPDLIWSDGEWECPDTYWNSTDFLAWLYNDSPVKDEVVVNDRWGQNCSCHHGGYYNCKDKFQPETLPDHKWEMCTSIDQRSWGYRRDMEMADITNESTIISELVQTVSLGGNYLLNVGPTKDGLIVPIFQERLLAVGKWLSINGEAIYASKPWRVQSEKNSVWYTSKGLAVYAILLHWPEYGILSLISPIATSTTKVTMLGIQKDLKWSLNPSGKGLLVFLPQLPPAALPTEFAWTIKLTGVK

[22] = test system: Penicillium decumbens; assay: Inhibition of Penicillium decumbens alpha-L-rhamnosidase at 100 uM relative to control
[23] = test system: Helix pomatia; assay: Inhibition of snail beta-mannosidase at 100 uM
[24] = molecular target: Beta-glucuronidase (Escherichia coli (strain K12)) (UniProt P05804); assay: Inhibition of Escherichia coli beta-glucuronidase at 100 uM
[25] = organism: Homo sapiens; assay: Inhibition of human lysosomal alpha-galactosidase at 100 uM realtive to control; assay type: subcellular; settings: Lysosome
[26] = organism: Bos taurus; assay: Inhibition of bovine liver beta-glucuronidase at 100 uM
[27] = molecular target: T1, Alpha-mannosidase (Canavalia ensiformis); assay: Inhibition of jack bean alpha-mannosidase at 100 uM
[28] = test system: Prunus dulcis; assay: as §1
[29] = organism: Sus scrofa; assay: Inhibition of porcine kidney trehalase at 100 uM relative to control; assay type: tissue-based
[30] = test system: Aspergillus niger; assay: Inhibition of Aspergillus niger amyloglucosidase at 100 uM relative to control
[31] = molecular target: T2, Tissue alpha-L-fucosidase (Bos taurus); assay: Inhibition of bovine kidney alpha-L-fucosidase at 100 uM
[32] = molecular target: Alpha-galactosidase (Coffea arabica) (UniProt Q42656); assay: Inhibition of coffee bean alpha-galactosidase at 1000 uM relative to control
Alpha-galactosidase (Coffea arabica), sequence (Q42656 16-378 limits assumed): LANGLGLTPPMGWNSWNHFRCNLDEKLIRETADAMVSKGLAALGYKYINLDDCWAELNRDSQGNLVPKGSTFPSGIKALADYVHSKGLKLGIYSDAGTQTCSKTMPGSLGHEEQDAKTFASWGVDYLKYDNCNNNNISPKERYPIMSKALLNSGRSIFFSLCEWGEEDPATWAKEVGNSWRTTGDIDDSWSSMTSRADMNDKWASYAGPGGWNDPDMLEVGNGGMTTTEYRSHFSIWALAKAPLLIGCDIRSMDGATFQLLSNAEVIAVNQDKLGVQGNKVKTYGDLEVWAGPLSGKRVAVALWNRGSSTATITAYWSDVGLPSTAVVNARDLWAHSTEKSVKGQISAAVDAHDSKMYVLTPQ

Alpha-galactosidase, sequence (Q42656 whole entry): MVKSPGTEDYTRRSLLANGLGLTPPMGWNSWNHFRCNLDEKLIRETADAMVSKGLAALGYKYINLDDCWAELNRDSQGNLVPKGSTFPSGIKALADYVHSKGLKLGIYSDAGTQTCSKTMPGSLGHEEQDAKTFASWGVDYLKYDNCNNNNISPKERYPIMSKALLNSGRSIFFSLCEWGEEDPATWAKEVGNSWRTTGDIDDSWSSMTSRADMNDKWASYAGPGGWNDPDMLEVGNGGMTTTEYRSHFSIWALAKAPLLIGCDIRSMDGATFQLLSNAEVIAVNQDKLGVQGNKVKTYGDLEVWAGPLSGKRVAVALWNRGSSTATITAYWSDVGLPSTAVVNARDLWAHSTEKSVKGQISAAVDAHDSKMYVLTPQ
Beta-glucuronidase (Escherichia coli (strain K12)), sequence (P05804 whole entry, looked up): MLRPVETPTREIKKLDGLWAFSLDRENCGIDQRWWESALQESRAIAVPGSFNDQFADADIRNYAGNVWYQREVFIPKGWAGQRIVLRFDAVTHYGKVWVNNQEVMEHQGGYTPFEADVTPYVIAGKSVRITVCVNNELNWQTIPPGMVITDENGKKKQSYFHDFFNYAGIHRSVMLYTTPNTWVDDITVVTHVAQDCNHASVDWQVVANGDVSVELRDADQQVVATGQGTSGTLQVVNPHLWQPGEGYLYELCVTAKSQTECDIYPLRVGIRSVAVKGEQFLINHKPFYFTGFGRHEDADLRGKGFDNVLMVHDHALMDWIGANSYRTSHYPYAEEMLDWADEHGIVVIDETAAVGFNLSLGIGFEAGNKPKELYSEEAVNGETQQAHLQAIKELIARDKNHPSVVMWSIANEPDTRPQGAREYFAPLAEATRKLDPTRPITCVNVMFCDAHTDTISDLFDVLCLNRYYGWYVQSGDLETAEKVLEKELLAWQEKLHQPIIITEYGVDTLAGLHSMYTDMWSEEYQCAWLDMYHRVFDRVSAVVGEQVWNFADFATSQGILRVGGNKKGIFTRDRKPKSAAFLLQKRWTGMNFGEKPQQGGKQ

Structure (SMILES): OC[C@H]1N[C@H](CCCCCCC(O)C(O)Cc2ccc(O)cc2)[C@H](O)[C@@H](O)[C@@H]1O (some centres undefined)
- IC50 [1]: 150 nM

Structure (SMILES): OCCCCCC/C=C\C[C@H](O)[C@@H](O)[C@H]1N[C@H](CO)[C@H](O)[C@@H]1O[C@@H]1O[C@H](CO)[C@@H](O)[C@H](O)[C@H]1O
- inhibition [2]: < 50%
- IC50 [3]: 8 µM

Structure (SMILES): OCCCCCCCCCCCC[C@H](O)[C@@H]1N[C@@H](CO)[C@H](O)[C@H]1O
- inhibition [4]: 15.2%

Structure (SMILES): CCCCCCCC[C@H]1N[C@H](CO)[C@@H](O)[C@H](O)[C@H]1O
- inhibition [5]: inactive
- IC50 [6]: 52 µM
- inhibition [7]: 43.2%
- inhibition [8]: inactive
- IC50 [9]: 175 µM
- IC50 [10]: 600 nM
- inhibition [11]: inactive
- IC50 [12]: 175 µM
- IC50 [13]: 71 µM
- IC50 [14]: 700 nM
- inhibition [15]: 38.8%
- IC50 [16]: 1700 nM
- IC50 [3]: 3.3 µM
- IC50 [17]: 13 µM
- IC50 [18]: 195 µM
- inhibition [19]: inactive
- inhibition [20]: 43.8%
- inhibition [21]: inactive

Structure (SMILES): OC[C@H]1N[C@H]([C@H](O)C(O)CCCCCC(O)C(O)C(O)c2ccccc2)[C@@H](O[C@@H]2O[C@H](CO)[C@@H](O)[C@H](O)[C@H]2O)[C@H]1O (some centres undefined)
- IC50 [12]: 15 µM

Structure (SMILES): OC[C@H]1N[C@H]([C@H](O)CCCCCC[C@H](O)[C@@H](O)Cc2ccc(O)cc2)[C@@H](O)[C@@H]1O
- IC50 [12]: 0.92 µM

Structure (SMILES): O=C(O)C(F)(F)F.OC[C@H]1N[C@H](CCCCCCCCCc2ccc(O)cc2)[C@H](O)[C@@H](O)[C@@H]1O
- inhibition [22]: 10.9%
- inhibition [23]: inactive
- inhibition [24]: inactive
- inhibition [25]: 42.9%
- IC50 [6]: 4.1 µM
- inhibition [26]: inactive
- inhibition [27]: inactive
- inhibition [28]: 33.1%
- IC50 [10]: 250 nM
- inhibition [29]: 13.2%
- inhibition [30]: 16.4%
- IC50 [13]: 95 µM
- IC50 [14]: 400 nM
- IC50 [16]: 950 nM
- IC50 [3]: 22 µM
- IC50 [18]: 25 µM
- inhibition [31]: inactive

Structure (SMILES): OC[C@H]1N[C@H](CO)[C@@H](O)[C@H]1O
- IC50 [12]: 40 µM

Structure (SMILES): OC[C@H]1N[C@H]([C@H](O)C(O)CCCCCCC(O)C(O)c2ccccc2)[C@@H](O[C@@H]2O[C@H](CO)[C@@H](O)[C@H](O)[C@H]2O)[C@H]1O (some centres undefined)
- IC50 [12]: 68 µM

Structure (SMILES): OC[C@H]1N[C@H](C(O)CCCCCCC(O)C(O)c2ccccc2)[C@H](O)[C@@H](O)[C@H]1O (some centres undefined)
- inhibition [32]: 76%
